Assay: MIC of test compounds against various organisms
Assay type: cell-based, S. aureus, S. pneumoniae, H. influenzae, E. faecalis
Procedure: The MIC (μg/ml) of test compounds against various organisms was determined: S. aureus Oxford, S. aureus WCUH29, S. pneumoniae 1629, S. pneumoniae N1387, S. pneumoniae ERY 2, H. influenzae Q1, E. faecalis 7.

Row | Structure (SMILES) | MIC
1 | COc1ccc2nccc(NC(=O)N3CCN(CC(=O)c4ccc5c(c4)NC(=O)CO5)CC3)c2n1 [Example 12, 4-[2-Oxo-2-(3-oxo-3,4-dihydro-2H-benzo[1,4]oxazin-6-yl)-ethyl]piperazine-1-carboxylic acid (6-methoxy-[1,5]naphthyridin-4-yl)-amide.] | ≤ 0.25 µg/mL
2 | COc1ccc2nccc(NC(=O)N3CCN(CC(=O)c4cnc5ccccc5n4)CC3)c2n1 [Example 10, 4-(2-Oxo-2-quinoxalin-2-yl-ethyl)-piperazine-1-carboxylic acid (6-methoxy-[1,5]naphthyridin-4-yl)-amide.] | ≤ 2 µg/mL

Reference: US20040077655A1, “Piperazine derivatives for treatment of bacterial infections” (priority 2000, published 2004)
